Our source for the EC50 values is patent US12583858B2 (Genentech, Inc., priority 2015, dated 2026).

Bounds are passed on as bounds.

The target of the first experiment is T1, TDO2 (Homo sapiens, UniProt P48775).
T1 construct: decreased levels of NFK in SW48 cells (high TDO expressing cells)
T1 sequence (P48775 whole entry): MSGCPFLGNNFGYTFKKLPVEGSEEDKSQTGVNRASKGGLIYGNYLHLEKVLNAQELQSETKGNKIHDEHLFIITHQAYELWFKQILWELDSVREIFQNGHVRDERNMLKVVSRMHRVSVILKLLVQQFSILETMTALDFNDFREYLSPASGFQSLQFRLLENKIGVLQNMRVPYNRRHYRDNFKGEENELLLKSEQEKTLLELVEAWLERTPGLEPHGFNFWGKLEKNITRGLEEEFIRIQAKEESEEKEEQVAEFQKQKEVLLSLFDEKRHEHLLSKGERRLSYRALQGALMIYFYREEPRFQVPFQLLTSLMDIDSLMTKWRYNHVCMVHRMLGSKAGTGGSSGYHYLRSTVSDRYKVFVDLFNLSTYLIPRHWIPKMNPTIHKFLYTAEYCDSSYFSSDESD
In words: TDO2 cell assay (NFK GreenScreen, SW48 cells). The following applies: SW48 cells (high TDO expressing), 200 uM tryptophan, 24 hours; Table 3; read-out: TDO2 Cell Fluor EC50. Format: cell-based.
Regarding `O[C@@H]1c2cncn2CC[C@H]1[C@H]1c2ccccc2-c2cncn21` [Example 07h, (7S,8S)-7-((S)-5H-imidazo[5,1-a]isoindol-5-yl)-5,6,7,8-tetrahydroimidazo[1,5-a]pyridin-8-ol], the EC50 amounted to 0.86 µM. Same read-out and setting: the result for `OC1c2[nH]ncc2CCC1C1c2ccccc2-c2cncn21` (single isomer, unassigned) [Example 157g] reads 0.042 µM; that for `OC1c2cnnn2CCC1C1c2ccccc2-c2cncn21` (single isomer, unassigned) [Example 146a], 0.33 µM; that for `OC(c1ccncc1)C1c2ccccc2-c2cncn21` (single isomer, unassigned) [Example 152b], greater than 25 µM. Consider `Cc1cc2c(cn1)C(O)C(C1c3ccccc3-c3cncn31)C2` (single isomer, unassigned) [Example 59d], for which the concentration for a half-maximal effect (EC50) is greater than 25 µM. Still for that read-out and setting: the result for `CS(=O)(=O)c1ccc2c(c1)OCC(C1c3ccccc3-c3cncn31)C2O` (single isomer, unassigned) [Example 91b] reads greater than 25 µM; that for `Cn1cc2c(n1)CCC(C1c3ccccc3-c3cncn31)C2O` (single isomer, unassigned) [Example 130g], 4.5 µM. Take `NS(=O)(=O)N1CCC2(CC1)CC(C1c3ccccc3-c3cncn31)C2O` (single isomer, unassigned) [Example 181a]: the concentration for a half-maximal effect (EC50) was 0.66 µM. Still for that read-out and setting: the result for `CS(=O)(=O)N1CCC(O)C(C2c3ccc(F)cc3-c3cncn32)C1` (single isomer, unassigned) [Example 118c] reads 13 µM; that for `CCS(=O)(=O)N1CC[C@H]([C@@H]2c3ccccc3-c3cncn32)[C@@H](O)C1` [Example 16b, (3R,4R)-1-(ethylsulfonyl)-4-((R)-5H-imidazo[5,1-a]isoindol-5-yl)piperidin-3-ol], greater than 25 µM; that for `OC1c2cccnc2CCC1C1c2ccccc2-c2cncn21` (single isomer, unassigned) [Example 31c], 17 µM. Consider `CS(=O)(=O)c1ccc2c(c1)OCC(C1c3ccccc3-c3cncn31)C2O` (single isomer, unassigned) [Example 91f], for which the EC50 worked out at 0.81 µM. Consider `OC1CC2(CC2)C1C1c2ccccc2-c2cncn21` (single isomer, unassigned) [Example 72g], for which the EC50 was determined as 11 µM. Still for that read-out and setting: the result for `OC1c2cc(C(F)F)nn2CCC1C1c2ccccc2-c2cncn21` (single isomer, unassigned) [Example 173a] reads greater than 25 µM; that for `CS(=O)(=O)N1CCC(O)(C2c3ccccc3-c3cncn32)C1` (single isomer, unassigned) [Example 116c], greater than 25 µM. On the same count and under the same terms, the result for `NS(=O)(=O)c1ccc2c(c1)C(O)C(C1c3ccccc3-c3cncn31)CC2` (single isomer, unassigned) [Example 105d] reads 0.044 µM; that for `N#Cc1cnc2c(c1)CCC(C1c3ccccc3-c3cncn31)C2O` (single isomer, unassigned) [Example 107f], 0.42 µM; that for `O[C@@H](C1CCCCC1)[C@H]1c2ccccc2-c2cncn21` [Example 148b, (S)-cyclohexyl((R)-5H-imidazo[5,1-a]isoindol-5-yl)methanol], 16 µM.

In the case of `CC(C)(O)C1c2ccccc2-c2cncn21` (racemic) [Example 44, 2-(5H-imidazo[5,1-a]isoindol-5-yl)propan-2-ol], the EC50 amounted to 6.84 µM. As to `O[C@H]1c2ccccc2CC[C@@H]1[C@@H]1c2ccccc2-c2cncn21` [Example 102f, (1R,2R)-2-((R)-5H-imidazo[5,1-a]isoindol-5-yl)-1,2,3,4-tetrahydronaphthalen-1-ol], the EC50 is 5.4 µM. Turning to `O[C@H]1CCC[C@H]1[C@H]1c2ccccc2-c2cncn21` [Example 02b, (1S,2S)-2-((S)-5H-imidazo[5,1-a]isoindol-5-yl)cyclopentan-1-ol], the concentration for a half-maximal effect (EC50) came to 0.12 µM. Same read-out and setting: the result for `OC1COCCC1C1c2ccc(F)cc2-c2cncn21` (single isomer, unassigned) [Example 33c] reads 3.5 µM; that for `NC(=O)c1ccc2c(c1)CCC(C1c3ccccc3-c3cncn31)C2O` (single isomer, unassigned) [Example 60d], 0.74 µM. The same measure, in the same setting: the result for `CC1(C)OCC(C2c3ccccc3-c3cncn32)C1O` (single isomer, unassigned) [Example 85d] reads 0.66 µM; that for `OC1c2ccnn2CCC1C1c2ccccc2-c2cncn21` (single isomer, unassigned) [Example 56f], 3.8 µM. In the case of `OC1COCCC1C1c2cc(F)ccc2-c2cncn21` (single isomer, unassigned) [Example 75-1a], the EC50 amounted to 5.7 µM. The same measure, in the same setting: the result for `OC1c2ncccc2CCC1C1c2ccccc2-c2cncn21` (single isomer, unassigned) [Example 63b] reads 19 µM. On the same count and under the same terms, the same measure for `CC(C)[C@@H](O)[C@H]1c2ccc(F)cc2-c2cncn21` [Example 135b, (R)-1-((R)-8-fluoro-5H-imidazo[5,1-a]isoindol-5-yl)-2-methylpropan-1-ol]: greater than 25 µM. On the same count and under the same terms, the result for `OC1CCOCC1C1c2cccc(F)c2-c2cncn21` (single isomer, unassigned) [Example 170a] reads greater than 25 µM. `OC1c2cccn2CCC1C1c2ccccc2-c2cncn21` (single isomer, unassigned) [Example 136g]: the EC50 came to 0.2 µM.

Consider `N#Cc1cnn2c1[C@@H](O)[C@@H]([C@H]1c3ccccc3-c3cncn31)CC2` (single isomer, unassigned) [Example 156d], for which the EC50 is greater than 25 µM. On the same count and under the same terms, the result for `CS(=O)(=O)c1ccc2c(c1)CCC(C1c3ccccc3-c3cncn31)C2O` (single isomer, unassigned) [Example 36c] reads 7.4 µM; that for `OC1C(C2c3ccccc3-c3cncn32)CCC12CCOCC2` (single isomer, unassigned) [Example 68d], greater than 25 µM.

On to `Nc1ccc2c(n1)CCC(C1c3ccccc3-c3cncn31)C2O` (single isomer, unassigned) [Example 121e], for which the EC50 was found to be 16 µM. As for `O[C@H]1c2cccnc2CC[C@@H]1[C@H]1c2ccccc2-c2cncn21` [Example 31b, (5R,6R)-6-((S)-5H-imidazo[5,1-a]isoindol-5-yl)-5,6,7,8-tetrahydroquinolin-5-ol], the EC50 amounted to 1.4 µM. Same read-out and setting: the same measure for `O=c1cccc2n1CCC(C1c3ccccc3-c3cncn31)C2O` (single isomer, unassigned) [Example 29a, 1-hydroxy-2-(5H-imidazo[5,1-a]isoindol-5-yl)-3,4-dihydro-1H-quinolizin-6(2H)-one]: greater than 25 µM; for `OC1CCOCC1C1c2cccc(F)c2-c2cncn21` (single isomer, unassigned) [Example 170b]: 2.1 µM; for `N#CCN1CCC(O)C(C2c3ccccc3-c3cncn32)C1` (single isomer, unassigned) [Example 58b]: greater than 25 µM. Consider `N#CCN1CCC(O)C(C2c3ccccc3-c3cncn32)C1` (single isomer, unassigned) [Example 14d], for which the EC50 is greater than 25 µM.

As to `CS(=O)(=O)N1CCC(O)C(C2c3ccccc3-c3cncn32)CC1` (single isomer, unassigned) [Example 92d], the EC50 was found to be 0.24 µM.

As to `CN(C)C(=O)c1ccc2c(c1)CCC(C1c3ccccc3-c3cncn31)C2O` (single isomer, unassigned) [Example 98d], the EC50 was 9.5 µM. For the compound `OC1c2cnncc2CCC1C1c2ccccc2-c2cncn21` (single isomer, unassigned) [Example 112g], the EC50 came out at 0.27 µM. Still for that read-out and setting: the result for `OC1CC2(CCC2)C1C1c2ccccc2-c2cncn21` (single isomer, unassigned) [Example 67g] reads 2.4 µM. `CS(=O)(=O)N1CCC2(CC1)CC(C1c3ccccc3-c3cncn31)C2O` (single isomer, unassigned) [Example 179e]: the EC50 is 6.8 µM. In the case of `OC1c2cccn2CC[C@H]1C1c2ccccc2-c2cncn21` (stereo in doubt) [Example 136f, (7S,8S)-7-((R)-5H-imidazo[5,1-a]isoindol-5-yl)-5,6,7,8-tetrahydroindolizin-8-ol], the EC50 was determined as 0.36 µM.

As for `N#CC1CCC(O)(C2c3ccccc3-c3cncn32)CC1` (single isomer, unassigned) [Example 145d], the EC50 is greater than 25 µM.

For the compound `OC1c2ccnn2CCCC1C1c2ccccc2-c2cncn21` (single isomer, unassigned) [Example 133h], the half-maximal effective concentration (EC50) is greater than 25 µM.

For `N[C@@H]1COC[C@@H]1[C@@H]1c2ccccc2-c2cncn21` [Example 32a, (3S,4S)-4-[(5R)-5H-imidazo[4,3-a]isoindol-5-yl]oxolan-3-amine], the EC50 is greater than 25 µM. The same measure, in the same setting: the same measure for `OC1c2cnccc2CC1C1c2ccccc2-c2cncn21` (single isomer, unassigned) [Example 71d]: 1.6 µM. Consider `O[C@H]1c2ncccc2CC[C@H]1[C@H]1c2ccccc2-c2cncn21` [Example 63c, (7S,8R)-7-((S)-5H-imidazo[5,1-a]isoindol-5-yl)-5,6,7,8-tetrahydroquinolin-8-ol], for which the concentration giving a half-maximal response (EC50) was found to be 20 µM.

`O[C@H]1[C@@H]([C@@H]2c3ccccc3-c3cncn32)CCC12CCOCC2` [Example 68a, (1S,2R)-2-((R)-5H-imidazo[5,1-a]isoindol-5-yl)-8-oxaspiro[4.5]decan-1-ol]: the EC50 was 6.8 µM. Same read-out and setting: the result for `CCS(=O)(=O)N1CCC(O)C(C2c3ccccc3-c3cncn32)C1` (single isomer, unassigned) [Example 15c] reads 7.5 µM.

The experiment is the same for the next values; noted with them: SW48 cells (high TDO expressing); TDO selectivity table; read-out: TDO2 cell Fluor EC50.
On to `O[C@@H]1c2cncn2CC[C@H]1[C@H]1c2ccccc2-c2cncn21` [Example 07h, (7S,8S)-7-((S)-5H-imidazo[5,1-a]isoindol-5-yl)-5,6,7,8-tetrahydroimidazo[1,5-a]pyridin-8-ol], for which the EC50 was 0.86 µM. Take `OC1c2[nH]ncc2CCC1C1c2ccccc2-c2cncn21` (single isomer, unassigned) [Example 157g]: the EC50 is 0.042 µM.

The target in a further experiment is T2, IDO (Homo sapiens, UniProt P14902).
T2 construct: selective against A172+IFNg cells (high IDO expressing cells)
T2 sequence (P14902 whole entry): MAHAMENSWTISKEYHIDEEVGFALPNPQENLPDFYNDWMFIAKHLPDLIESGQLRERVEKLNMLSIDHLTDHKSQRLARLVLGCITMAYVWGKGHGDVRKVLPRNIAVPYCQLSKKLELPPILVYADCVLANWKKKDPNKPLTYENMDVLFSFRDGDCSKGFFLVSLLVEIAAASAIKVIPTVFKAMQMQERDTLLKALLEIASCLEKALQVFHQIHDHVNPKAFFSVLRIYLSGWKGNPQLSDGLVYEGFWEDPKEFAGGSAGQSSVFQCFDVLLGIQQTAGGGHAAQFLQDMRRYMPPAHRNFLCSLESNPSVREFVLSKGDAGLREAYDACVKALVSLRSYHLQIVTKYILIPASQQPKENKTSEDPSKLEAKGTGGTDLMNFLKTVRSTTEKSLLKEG
In words: IDO cell assay (NFK GreenScreen, A172+IFNg cells). The format is cell-based. Particulars: A172 cells + 100 ng/ml IFNγ (high IDO expressing), 100 uM tryptophan, 24 hours; TDO selectivity table; read-out: IDO cell Fluor EC50. As to the method:
Cells are counted on a Vi-Cell (Beckman Coulter). […] The final DMSO concentration is 0.5%.
Compounds of the invention were tested for selectivity against TDO over IDO. The cell based assay described above was used to test for TDO and IDO activity.
On to `O[C@@H]1c2cncn2CC[C@H]1[C@H]1c2ccccc2-c2cncn21` [Example 07h, (7S,8S)-7-((S)-5H-imidazo[5,1-a]isoindol-5-yl)-5,6,7,8-tetrahydroimidazo[1,5-a]pyridin-8-ol], for which the EC50 was greater than 25 µM.

With `OC1c2[nH]ncc2CCC1C1c2ccccc2-c2cncn21` (single isomer, unassigned) [Example 157g], the EC50 came out at 8 µM.

One may read the EC50 as the concentration that produces a half-maximal response.
